The source made the active and inactive calls.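 Rule for the calls: active = compounds giving half or more protection of infected cells from virus-caused growth loss, again on retest; inactive = the rest.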
Tested on: CEM cells HIV-1 protection, formazan growth assay
Assay: NCI AIDS Antiviral Assay
Details: for IC50: measured here: growth of uninfected CEM cells
Outline: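 Soluble formazan readout of cell growth; CEM cells ± HIV-1; 5 drug concs. ≥50% protection → retest; ≥50% again = moderately active; reproducible 100% = confirmed active.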

## CN(C)Cc1cc(C=O)cc(CN(C)C)c1O
  EC50: > 200 µM
  IC50: > 200 µM

## C=CCN(CC=C)c1nc(Cl)nc(Cl)n1
  EC50: > 200 µM
  IC50: > 200 µM

## CC(C)=C[C@@H]1C[C@H](n2cc(C)c(=O)[nH]c2=O)ON1CCOS(=O)(=O)c1ccc(C)cc1
  EC50: > 200 µM
  IC50: 81.3 µM

## Cc1ccc(S(=O)(=O)SC(SCC(=O)c2ccc(Br)cc2)C(=O)c2ccc(Br)cc2)cc1 (stereo not drawn)
  EC50: > 40.7 µM
  IC50: 38.9 µM

## S=P1(c2ccccc2)Nc2ccc(Cl)cc2N1 (stereo not drawn)
  EC50: > 468 µM
  IC50: 9.12 µM

## COc1ccc([N+](=O)[O-])c2c(NCCC[N+](C)(C)[O-])c3ccccc3nc12
  EC50: > 200 µM
  IC50: 3.09 µM

## O=S(=O)(O)c1cc(O)c2c(N=Nc3ccc(Nc4ccccc4)c4c(S(=O)(=O)O)cccc34)cc(S(=O)(=O)O)cc2c1
  EC50: 112 µM
  IC50: > 200 µM

## N#CC1C(=O)NC(=O)C(C#N)C12CCCc1sccc12 (stereo not drawn)
  EC50: > 871 µM
  IC50: 832 µM

## CCOc1ccc(Nc2nc(N)nc(N)c2N)cc1
  EC50: > 200 µM
  IC50: 66.1 µM

## CC(C)N(C(=O)C12C3(C(=O)OC(C)(C)C)C4C5(C#N)C3C1(C(=O)OC(C)(C)C)C5C42C(=O)OC(C)(C)C)C(C)C (stereo not drawn)
  EC50: > 200 µM
  IC50: 23.4 µM

## CCCCOC(=O)C(=O)C(CC(CC)C(=O)c1ccccc1)C(=O)C=C(C)C (stereo not drawn)
  EC50: > 646 µM
  IC50: > 646 µM

## NNc1ccc2cc(S(=O)(=O)O)cc(S(=O)(=O)O)c2c1
  EC50: > 741 µM
  IC50: 331 µM

## NC(=O)ON=C1CCN(Cc2ccccc2)CC1
  EC50: > 200 µM
  IC50: > 200 µM

## CCCCCC=C(c1cc(Cl)c(O)c(C(=O)NO)c1)c1cc(Cl)c(O)c(C(=O)NO)c1
  EC50: > 200 µM
  IC50: 35.5 µM

## O=S(c1ccccc1)[C@H]1CC2C3CC4C2C4C31 (stereo partly drawn)
  EC50: > 107 µM
  IC50: > 107 µM

## CC(=O)c1ccccc1NC(=O)C(=O)C(C(=O)c1ccccc1-c1ccccc1)C1OC(=O)c2ccccc21 (stereo not drawn)
  EC50: > 50.1 µM
  IC50: 26.9 µM

## Cc1ccc(N2C(=O)N(c3ccc(C)cc3)C3(Sc4ccccc4N3C)C2=O)cc1 (stereo not drawn)
  EC50: > 12.6 µM
  IC50: > 12.6 µM

## Cc1ccc(SCc2nc3ccccc3c(C)[n+]2[O-])cc1
  EC50: 9.33 µM
  IC50: 49 µM

## O=C1/C(=C/c2ccc(OCc3ccccc3)cc2)CCC/C1=C\c1ccc(OCc2ccccc2)cc1
  EC50: > 2.95 µM
  IC50: > 2.95 µM

## O=S(=O)(NCCSSCCNS(=O)(=O)c1ccc2ccccc2c1)c1ccc2ccccc2c1
  EC50: > 200 µM
  IC50: 64.6 µM

## CCOC1OC(c2ccccc2)=NS(=O)(=O)C1(C)C (stereo not drawn)
  EC50: > 891 µM
  IC50: 513 µM

## COC(=O)c1cc(NC2OCC(OC(C)=O)C(OC(C)=O)C2OC(C)=O)nc(SC)c1C(=O)OC (stereo not drawn)
  EC50: > 200 µM
  IC50: > 200 µM

## C=C(CN(C)C)C(=O)c1ccc(C)cc1C
  EC50: > 200 µM
  IC50: 11.7 µM

## CC(C)C(Sc1nc(-c2ccccc2)c(-c2ccccc2)[nH]1)c1n[nH]c(=S)n1-c1ccccc1 (stereo not drawn)
  EC50: > 14.8 µM
  IC50: 7.08 µM

## CCC12CCCNC1c1c(n(C)c3ccccc13)C(C(=O)OC)C2 (stereo not drawn)
  EC50: > 37.2 µM
  IC50: 34.7 µM

## CC(=O)Oc1ccn2nc(C)c(Br)c2c1
  EC50: > 200 µM
  IC50: 93.3 µM

## CCOC(OCC)c1ccccc1.[C-]#[O+].[C-]#[O+].[C-]#[O+].[Cr]
  EC50: > 20 µM
  IC50: 2.04 µM

## COc1ccc(/C=C2\NC(=S)N(CN3CCCCC3)C2=O)cc1
  EC50: > 200 µM
  IC50: 30.9 µM

## NC(=S)N/N=c1\cc(C(=O)Nc2ccc([N+](=O)[O-])cc2[N+](=O)[O-])oc2ccccc12
  EC50: > 60.3 µM
  IC50: > 60.3 µM

## Cc1ccc(S)c(C(O)(C(F)(F)F)C(F)(F)F)c1
  EC50: > 200 µM
  IC50: 12 µM

## CC(C)=CCC/C(C)=C/CC/C(C)=C/Cc1c(O)c2ccccc2oc1=O
  EC50: > 186 µM
  IC50: 95.5 µM

## CCOC(=O)C1(C(=O)OCC)CC(=O)[C@@]2(C1)OCC[C@H]1OC(=O)C[C@H]12
  EC50: > 200 µM
  IC50: > 200 µM

## Cc1nn2c(nc1=O)sc1ccc3ccccc3c12
  EC50: > 83.2 µM
  IC50: > 83.2 µM

## O=C(OCc1ccccc1)N1N=NC2C3CC(OCc4ccccc4)(OCc4ccccc4)C(O3)C21 (stereo not drawn)
  EC50: > 10.7 µM
  IC50: > 10.7 µM

## O=C(O)CSCC(=O)Nc1ccc2cccc3c2c1CC3
  outcome: inactive

## O=[N+]([O-])c1ccc2c(c1)-c1ccccc1S2(=O)=O
  outcome: inactive

## C#CCN(Cc1ccc2nc(-c3ccccc3)c(Cl)nc2c1)c1ccc(Cl)c(Cl)c1
  EC50: > 200 µM
  IC50: > 200 µM

## CC(=O)CCCCn1c(=O)c2c(nc(Br)n2C)n(C)c1=O
  EC50: > 200 µM
  IC50: 52.5 µM

## Cc1cccc(C(C)C)c1NC(=O)CC1Sc2ccccc2NC1=O (stereo not drawn)
  EC50: > 20.4 µM

## CCCN(CCCCC(NC(C)=O)C(=O)NCc1ccccc1)C(=O)N(C)N=O (stereo not drawn)
  EC50: > 89.1 µM
  IC50: > 89.1 µM

## C=CCCCC(C)(C(=O)OC(C)(C)C)C1=NOC(C)(C)C1 (stereo not drawn)
  EC50: > 200 µM
  IC50: > 200 µM

## Cc1c(-c2ccc(N)cc2)c(=O)oc2cc(O)ccc12
  EC50: > 200 µM
  IC50: > 200 µM

## COc1cc(/C=C/C(=O)CC(=O)/C=C/c2cc(OC)c(O)c(OC)c2)cc(OC)c1O
  EC50: > 200 µM
  IC50: 12.6 µM

## Cc1c(NC(=O)C(=O)N=NC(=O)c2ccncc2)c(O)c2ccccc2c1O
  outcome: inactive

## COc1ccc(C2SC(=S)N(Cc3ccc(Cl)cc3)N2Cc2ccc(Cl)cc2)cc1 (stereo not drawn)
  EC50: > 200 µM
  IC50: 34.7 µM

## CSC1NC(c2ccccc2)=C(C#N)C(=O)N1C1OCC(OC(C)=O)C(OC(C)=O)C1OC(C)=O (stereo not drawn)
  EC50: > 200 µM
  IC50: 148 µM

## O=C(/C=C/c1ccc(OCCCOc2ccc(/C=C/C(=O)c3ccccc3)cc2)cc1)c1ccccc1
  EC50: > 10.7 µM
  IC50: > 10.7 µM

## CN(C)C(=Nc1ccc(NC(=O)c2ccc(C(=O)Nc3ccc(N=C(Nc4ccccc4)N(C)C)cc3)cc2)cc1)Nc1ccccc1
  outcome: inactive

## C/C=C/C=C1\C=Cc2c(C(=O)OC)coc(=O)c21
  EC50: > 200 µM
  IC50: 35.5 µM

## CC1(C)OCN(c2ccc(S(N)(=O)=O)cc2)Cn2c1nc1ccccc12
  EC50: > 200 µM
  IC50: 117 µM

## CCCCCCCCCCCCCCCC(=O)ON1C(=S)NC(C)(c2ccccc2)C1=S (stereo not drawn)
  EC50: > 200 µM
  IC50: 77.6 µM

## C=CCNC(=S)N1CC(C)C(=O)Nc2ccccc21 (stereo not drawn)
  EC50: > 661 µM
  IC50: > 661 µM

## O=C1OCCSCCOCCSCCOC(=O)c2cccc1n2
  outcome: inactive

## Cc1cc(O)c(/C=N/C(=S)Nc2ccc(S(N)(=O)=O)cc2)c(=O)o1
  EC50: > 200 µM
  IC50: > 200 µM

## NC(=O)c1ncn(CC2(CO)CCC2)n1
  EC50: > 200 µM
  IC50: > 200 µM

## Cc1nc(C(N)=S)sc1C(=O)C/C(=N/N)C(=O)Nc1cccc(Cl)c1C
  EC50: > 166 µM
  IC50: > 166 µM

## CC(C)/C(Cl)=N\OC(=O)Nc1ccc(S(N)(=O)=O)cc1
  EC50: > 200 µM
  IC50: 9.77 µM

## O=C(/C=C/c1ccc(Cl)c(Cl)c1)c1ccc2ccccc2c1
  EC50: > 11.5 µM
  IC50: > 11.5 µM

## Cn1c2ccccc2n2c3nc4ccccc4nc3c(C#N)c12
  outcome: inactive

## COc1ccc([C@@H]2ON(C)[C@H]3CN(C)C(=O)[C@@H]23)cc1
  EC50: > 200 µM
  IC50: > 200 µM

## O=C1CC(c2ccc(Cl)cc2)NC(=O)N1CCN1CCCC1 (stereo not drawn)
  EC50: > 200 µM
  IC50: > 200 µM

## O=c1c2ccccc2n2n1CC(O)C2 (stereo not drawn)
  outcome: inactive

## CCOC(=O)/C(ON)=C(/CC/C(C(=O)OC)=C(\ON)C(=O)OCC)C(=O)OC
  EC50: 155 µM
  IC50: 617 µM
